In patent publication US20110098358A1, “HUMAN BETA3 ADRENERGIC RECEPTOR LIGAND, AND FOOD OR PHARMACEUTICAL PRODUCT CONTAINING THE SAME” (RICOM CORPORATION, priority 2008, published 2011):
Structures can show the parent of a compound that is named as a salt.

Tests used:
[1] = target: T1, human recombinant adrenergic β3 receptor (Homo sapiens, UniProt P13945); assay: adrenergic β3 receptor binding activity ([125I]cyanopindolol); details: HEK-293 cells, 0.5 nM [125I]cyanopindolol, Tris buffer pH 7.4, 25° C., 90 minutes
T1 construct: expressed in transfected cells; host or cells: HEK-293 cells
T1 sequence (P13945 whole entry): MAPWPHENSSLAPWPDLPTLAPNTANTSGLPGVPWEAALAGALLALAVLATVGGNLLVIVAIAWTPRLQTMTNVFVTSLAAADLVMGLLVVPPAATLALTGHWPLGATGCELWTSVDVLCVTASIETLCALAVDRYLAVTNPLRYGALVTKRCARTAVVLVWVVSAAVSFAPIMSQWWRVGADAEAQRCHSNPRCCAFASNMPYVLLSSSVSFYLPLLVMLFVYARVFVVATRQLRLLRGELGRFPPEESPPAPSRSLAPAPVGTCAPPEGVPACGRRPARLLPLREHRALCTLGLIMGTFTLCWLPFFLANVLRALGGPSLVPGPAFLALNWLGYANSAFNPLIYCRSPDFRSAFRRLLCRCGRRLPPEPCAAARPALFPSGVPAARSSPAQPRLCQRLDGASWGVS
Procedure: The adrenergic β3 receptor binding activity can be measured according to, for example, the method described in Cell Biology: Feve et al, Proc. Natl. Acad. Sci. USA 91 (1994), Vol. 91, pp. 5677-5681, using HEK-293 cells which express a human recombinant adrenergic β3 receptor. That is, a solution of a sample in 1% DMSO, and 0.5 nM [^125I]cyanopindolol are added to Tris buffer (pH 7.4), and the HEK-293 cells are cultured therein at 25° C. for 90 minutes, followed by filtration and washing of the cells, and measurement of the radioactivity of the adrenergic β3 receptor binding ligand.
Each component containing the components shown in Table 1 below was dissolved in DMSO to 1 w/v %, and the resulting solution was added to an adipocyte differentiation medium (Primary Cell Co., Ltd., Lot No. 080411) to a final concentration of 10 μg/mL before use. The test of the adrenergic β3 receptor binding activity was carried out by the above-mentioned method.

[2] = tested on: visceral preadipocytes (VAC); assay: observation of cell morphology (VAC), fat accumulation and reaction to NE; type: cell-based, rat; details: NE 1×10^−6 M, 6 hours on last day
Procedure: (§1) Using 4 types of rat primary preadipocytes (visceral fat, […], subcutaneous white fat and brown fat), the fat accumulation-suppressing effect and fat-releasing effect by the composition of the present invention were preliminarily studied in vitro. […] The test of the adrenergic β3 receptor binding activity was carried out by the above-mentioned method. The Preadipocyte Culture kit H-3 with 3 types of cells (primary, rat, Primary Cell Co., Ltd.: visceral preadipocytes (hereinafter referred to as VAC), Lot No. FIHA-FV; subcutaneous white preadipocytes (hereinafter referred to as […] preadipocytes (hereinafter referred to as EAC), FIHA-FE) and the Brown Adipocyte Culture kit F-8 (primary, rat, Primary Cell Co., Ltd.: Lot No. HDOA-1) were used. The 3 types of preadipocytes (visceral fat, […] subcutaneous white fat) were seeded into 12 wells in a 24-well plate at a cell number of 1.5×10^6 (1.2×10^5 cells/mL/well), followed by preculture for 4 days in the adipocyte differentiation medium. Thereafter (on day 4 after seeding), the negative control substance and the test substance were prepared to a predetermined concentration in a visceral fat differentiation medium, and the prepared medium was added to the cells. The medium was replaced on days 0, 2 and 4 after the addition of the test substance (days 4, 6 and 8 after seeding), while adding freshly prepared medium after the collection. […]

[3] = tested on: subcutaneous white preadipocytes (SAC); assay: observation of cell morphology (SAC), fat accumulation and reaction to NE; type: cell-based, rat; details: NE 1×10^−6 M, 6 hours on last day
Procedure: as §1

[4] = tested on: periepididymal preadipocytes (EAC); assay: observation of cell morphology (EAC), fat accumulation and reaction to NE; type: cell-based, rat; details: NE 1×10^−6 M, 6 hours on last day
Procedure: as §1

brown adipocytes (BAT) = assay: observation of cell morphology (BAT), fat accumulation and reaction to NE; type: cell-based, rat; details: 1 hour on last day
Procedure: Using 4 types of rat primary preadipocytes (visceral fat, […], subcutaneous white fat and brown fat), the fat accumulation-suppressing effect and fat-releasing effect by the composition of the present invention were preliminarily studied in vitro. […] The test of the adrenergic β3 receptor binding activity was carried out by the above-mentioned method. The Preadipocyte Culture kit H-3 with 3 types of cells (primary, rat, Primary Cell Co., Ltd.: visceral preadipocytes (hereinafter referred to as VAC), Lot No. FIHA-FV; subcutaneous white preadipocytes (hereinafter referred to as […] preadipocytes (hereinafter referred to as EAC), FIHA-FE) and the Brown Adipocyte Culture kit F-8 (primary, rat, Primary Cell Co., Ltd.: Lot No. HDOA-1) were used. Cells seeded on a 24-well plate were cultured in a growth medium for 3 days, and the cells were confirmed to have become confluent. After replacing the medium with a differentiation induction medium, the culture was continued for 2 days, and the negative control substance and the test substance were prepared to a predetermined concentration with a maintenance medium, followed by addition of the prepared medium and 4 days of culture. The treatment with NE was carried out in the same manner as in VAC, using the maintenance medium. […]

Row | Binding activity (%) [1] | SMILES | reaction by treatment with NE (morphology) [2] | reaction by the addition of NE (morphology) [3] | reaction by the addition of NE (morphology) [4] | reaction by 1 hour of treatment with NE (morphology) (brown adipocytes (BAT))
1 | 22% | CC/C=C\C/C=C\C/C=C\CCCCCCCC(=O)O [compound 7, C18:3α] |  |  |  | 
2 |  | NC[C@H](O)c1ccc(O)c(O)c1 [NE, (−)-Norepinephrine(+)-bitartrate salt hydrate] | reaction by 6 hours of the treatment with NE was obtained | reaction by the addition of NE was obtained | reaction by the addition of NE was obtained | sufficiently confirmed
